Data set [1] relates to tau. Nature of the data set: Tau phosphorylation, AT8 immunoblot. Format: cell-based. Conditions: 100 μM; to the control level. The text has this: Following the experimental design of Sadot et al., J.Neurochem. […] By linking an M1 agonist to an antioxidant moiety tau phophorylation may be decreased, providing a new therapeutic strategy in a variety of CNS disease states due to combined damage due to oxidative stress and tau hyperphosphorylation.
In general terms: A western blot detects proteins with antibodies after separation by electrophoresis.

The subject of data set [2] is rat pheochromocytoma cells transfected with the M1 mAChR.
Data set [3] has as its system ApoE. Nature of the data set: ApoE synthesis and secretion in rat primary type 1 astrocytes. Format: cell-based. To be noted: 96 hrs; 0.1 nM.
Protocol: Primary cultures of type 1 astrocytes were derived from the cortex of Sprague Dawley rats. The compounds tested were dissolved in the culture media and added to cells for 24, 48, 72 and 96 hrs. Media was then removed and kept frozen until ApoE protein levels were evaluated by immunoblot analysis as described in Poirier et al Neuroscience 55: 81-90 (1993).
Data set [4] is described as follows: Morris water maze in C57BL/10SnJ (small hippocampus) vs C57BL6J mice. In kind it is in vivo. Conditions: for reversal test, swimming speed: normal hippocampi mice, AF150(S) 0.5 mg/kg, AF267B 1 mg/kg. The method, then:
C57BL/10SnJ (B10) mice were selected due to their small hippocampi and decreased number of hippocampal pyramidal neurons; the cell loss seemed to be associated with poor spatial learning.
Each group of mice was randomly divided into 7 treatment groups (n=12-14/group). […] All tested compounds and saline were administered once a day for 4 days before starting the behavioral testing, and then for the duration of the 5-day experiment, 30 minutes before testing.
Training: Each mouse was trained for four consecutive days, four trials (one block) per day, in which the platform position remained constant and was located in the center of the southeast quadrant of the pool. Within each block of four trials, each mouse started at each of the starting locations, but the sequence of locations was randomly selected. A trial consisted of placing a mouse by hand into the water facing the wall of the pool at one of four starting locations, north, south, east or west, around the pool's perimeter. Escape latency (the time to find the platform), path length (the distance traveled by the mouse) and speed (the swimming rate of the mouse) were recorded on each trial by the monitoring system.
For each mouse, the path length, escape latency, and swimming speed of the four trials on each of the 4 training days were grouped into blocks (one block for each day). […] Specific comparisons were performed, using the simple main effects contrasts analysis, which is specifically suited for testing significant interactions.
Transfer test. During trial No. 17, on the fourth day, the platform was entirely removed from the pool (a probe trial). In this trial, the mouse was placed into the water for a limited period (30 s), and its spatial bias was measured by recording the relative distribution of escape latency and path length over the four quadrants of the pool.
Reversal test. During trials 18-21, on the fifth day, the platform position was changed to the northwest quadrant, opposite to the training quadrant Thus, during reversal learning, the platform location was moved relative to the configuration of objects within the room, but the pool occupied the same place within the room throughout the entire experiment. Testing of the […] and measures taken were the same as in training.
For each mouse, the escape latency, path length and swimming speed of the reversal test (trials No. 18-21) were grouped into one block.

[5] abbreviates: small hippocampus mice, AF compounds 0.5 and 1 mg/kg i.p., rivastigmine, nicotine 1 mg/kg i.p.

On to `CCC1SC2(CCN(C)CC2)N(C(=O)CCc2c[nH]c3ccccc23)C1=O` (racemic) [AF704, 2-Ethyl-4(3-1H-indol-3-yl-propionyl)-8-methyl-1-thia-4,8-diaza-spiro[4.5]decan-3-one], for which the “phosphorylated tau (AT8)” value in data set [1] is on record as “induce dephosphorylation of tau proteins”. The β-A25-35-induced cytotoxicity entry in data set [2] was “more effective than carbachol and AF267B”.
For `CC1OC2(CS1)CN1CCC2CC1` (stereo not shown) [AF102B, reference compound], the “inhibition of ApoE production” value in data set [3] is “inactive”.
Consider `CC[C@@H]1SC2(CCN(C)CC2)N(S(=O)(=O)c2ccc(F)cc2)C1=O` [AF700, (S)-2-Ethyl-4-(4-fluoro-benzenesulfonyl)-8-methyl-1-thia-4,8diaza-spiro[4.5]decan-3-one], for which, in data set [2], the β-A25-35-induced cytotoxicity entry was “more effective than carbachol and AF267B”.
For the compound `CCC1SC2(CCN(C)CC2)N(CCc2c[nH]c3ccccc23)C1=O` (stereo not shown) [AF703, 2-Ethyl-4-[2-(1H-indol-3-yl)ethyl]-8-methyl-1-thia-4,8-diaza-spiro[4.5]decan-3-one], the β-A25-35-induced cytotoxicity result in data set [2] is “more effective than carbachol and AF267B”.
As to `CN1CCCC1c1cccnc1` (stereo not shown) [nicotine, reference compound], the “reversal test, swimming speed” value in data set [4] was “significantly decreased”. Further, in data set [4] (normal hippocampus mice), the “training, escape latency” value is recorded as “degraded the performance” and the “training, swimming speed” value was “significantly decreased the swimming speed”. Besides, the “reversal test, escape latency” value in data set [4] (normal hippocampus mice, AF150(S) at 0.5 mg/kg) is reported as “no significant effect”. In data set [4] (small hippocampus mice), the “training, swimming speed” value is recorded as “Neither rivastigmine nor nicotine had any significant effect” and the “transfer test, spatial bias” value is reported as “only a partial spatial bias”. The “training, escape latency” value in data set [4] (setting [5]) is recorded as “no improving effect”.
For the compound `CCN(C)C(=O)Oc1cccc([C@H](C)N(C)C)c1` [rivastigmine, reference compound], the “reversal test, swimming speed” value in data set [4] is on record as “significantly decreased”. Moreover, the “training, swimming speed” value in data set [4] (normal hippocampus mice) is recorded as “significantly decreased the swimming speed”. In data set [4] (small hippocampus mice), the “training, swimming speed” value is listed as “Neither rivastigmine nor nicotine had any significant effect” and the “transfer test, spatial bias” value is given as “complete spatial bias”. Moreover, in data set [4] (small hippocampus mice, AF150(S) both doses, AF267B the higher dose), the “training, path length” value is given as “positively affected the performance”. Further, the “training, escape latency” value in data set [4] (setting [5]) is recorded as “positively affected the training performance”.
In the case of “(S)-Ethyl-4-(3-1H-indol-3-yl-propionyl)-8-methyl-1-thia-4,8-diaza-spiro[4.5]decan-3-one [AF704B]”, in data set [1], the “phosphorylated tau (AT8)” value is recorded as “induce dephosphorylation of tau proteins”.

Values taken from patent US7439251B2, “Methods and compositions for treatment of central and peripheral nervous system disorders and novel compounds useful therefor” (Israel Institute for Biological Research, priority 2002, dated 2008).
